Reference: paper PMC6259751, “Investigating Spectrum of Biological Activity of 4- and 5-Chloro-2-hydroxy-N-[2-(arylamino)-1-alkyl-2-oxoethyl]benzamides” (Molecules, 2011)
≈ marks a conversion by molar mass, not a printed value. Where “and” joins values, the source holds several entries; their conditions need not be identical. Identical values can stand only once. Like-named read-outs stand apart in the source and are kept apart here.

Key:
[1] = system: Enterococcus sp. J 14365/08; experiment: In vitro antibacterial susceptibility testing (broth microdilution); conditions: read-out: MIC EF
[2] = Lipophilicity determination by RP-HPLC (capacity factor k / log k); type: physicochemical; conditions: C18 column, MeOH 70% / H2O 30%, isocratic
Experimental: Hydrophobicities (log P/Clog P) of compounds 8 and 9 were calculated using two commercially available programs (ChemOffice Ultra 10.0 and ACD/LogP) and measured by means of RP-HPLC determination of capacity factors k with subsequent calculation of log k. The procedure was performed under isocratic conditions with methanol as an organic modifier in the mobile phase using an end-capped non-polar C18 stationary RP column. The results are shown in Table 1 and illustrated in Figure 1.
A Waters Alliance 2695 XE HPLC separation module and a Waters Photodiode Array Detector 2996 (Waters Corp., Milford, MA, USA) were used. A Symmetry® C18 5 μm, 4.6 × 250 mm, Part No. WAT054275 (Waters Corp., Milford, MA, USA) chromatographic column was used. The HPLC separation process was monitored by Empower™ 2 Chromatography Data Software, Waters 2009 (Waters Corp., Milford, MA, USA). A mixture of MeOH p.a. (70%) and H2O-HPLC – Mili-Q Grade (30%) was used as a mobile phase. The total flow of the column was 1.0 mL/min, injection volume, 30 μL, column temperature, 30 °C and sample temperature, 10 °C. The detection wavelength of 210 nm was chosen. The KI methanolic solution was used for the dead time (tD) determination. Retention times (tR) were measured in minutes. The capacity factors k were calculated using the Empower™ 2 Chromatography Data Software according to formula k = (tR - tD)/tD, where tR is the retention time of the solute, whereas tD denotes the dead time obtained using an unretained analyte. Log k, calculated from the capacity factor k, is used as the lipophilicity index converted to log P scale.

[3] = system: Mycobacterium avium MA CNCTC My 330/88; experiment: In vitro antimycobacterial evaluation; type: cell-based; conditions: IC90 value
[4] = system: photosynthetic electron transport (PET) in spinach chloroplasts; experiment: Inhibition of photosynthetic electron transport (PET) in spinach chloroplasts; type: biochemical, Spinacia oleracea L.; conditions: DCPIP photoreduction
Experimental: Chloroplasts were prepared from spinach (Spinacia oleracea L.) according to Masarovicova and Kralova. The inhibition of photosynthetic electron transport (PET) in spinach chloroplasts was determined spectrophotometrically (Genesys 6, Thermo Scientific, USA), using an artificial electron acceptor 2,6-dichlorophenol-indophenol (DCIPP) according to Kralova et al., and the rate of photosynthetic electron transport was monitored as a photoreduction of DCPIP. The measurements were carried out in phosphate buffer (0.02 mol/L, pH 7.2) containing sucrose (0.4 mol/L), MgCl2 (0.005 mol/L) and NaCl (0.015 mol/L). The chlorophyll content was 30 mg/L in these experiments and the samples were irradiated (~100 W/m^2) from 10 cm distance with a halogen lamp (250 W) using a 4 cm water filter to prevent warming of the samples. The studied compounds were dissolved in DMSO due to their limited water solubility. […] The inhibitory efficiency of the studied compounds was expressed by IC50 values, i.e. by molar concentration of the compounds causing 50% decrease in the oxygen evolution rate relative to the untreated control.

Candida tropicalis 156 = experiment: In vitro antifungal susceptibility testing (broth microdilution); type: cell-based; conditions: M27-A2 for yeasts, IC80 value
[5] = system: Trichophyton mentagrophytes 445; experiment: as above; type: cell-based; conditions: M38-A for moulds, IC50 value, read-out: MIC TM
[6] = system: methicilin resistant Staphylococcus aureus H 5996/08; experiment: In vitro antibacterial susceptibility testing (broth microdilution); conditions: MRSA, read-out: MIC MRSA
[7] = system: Staphylococcus aureus CCM 4516/08; experiment: as above; conditions: read-out: MIC SA
[8] = system: Staphylococcus epidermidis H 6966/08; experiment: as above; conditions: read-out: MIC SE
[9] = type: physicochemical; conditions: for precipitation in the testing medium: antimycobacterial testing medium
Experimental: The discussed amides were tested against three Mycobacteria strains. […] Activities of some benzamides, especially against M. avium and M. kansasii, considerably exceeded the activity of isoniazid (INH) used as an internal standard. The discussed compounds can be divided according to the activities against individual Mycobacteria strains, and structure-activity relationships within Group 1, Group 2 and Group 4 can be discussed.

[10] = system: Mycobacterium tuberculosis MTB CNCTC My 331/88; experiment: In vitro antimycobacterial evaluation; type: cell-based; conditions: IC90 value
[11] = system: Mycobacterium kansasii MK CNCTC My 235/80; experiment: In vitro antimycobacterial evaluation; type: cell-based; conditions: IC90 value

| SMILES | MIC ([1]; SP.J14365/08, 24 h) [µM] | MIC ([1]; SP.J14365/08, 48 h) [µM] | log k [2] | MIC ([3]; 14h) [µM] | MIC ([3]; 21h) [µM] | IC50 [4] [µM] | MIC (Candida tropicalis 156; 24h) [µM] | MIC (Candida tropicalis 156; 48h) [µM] | MIC ([5]; 72h) [µM] | MIC ([5]; 120h) [µM] | MIC ([6]; 24 h) [µM] | MIC ([6]; 48 h) [µM] | MIC ([7]; CCM4516, 24 h) [µM] | MIC ([7]; CCM4516, 48 h) [µM] | MIC ([8]; H6966/08, 24 h) [µM] | MIC ([8]; H6966/08, 48 h) [µM] | MIC ([10]; 14h) [µM] | MIC ([10]; 21h) [µM] | MIC ([11]; 14h) [µM] | MIC ([11]; 21h) [µM] | also measured |
| --- | --- | --- | --- | --- | --- | --- | --- | --- | --- | --- | --- | --- | --- | --- | --- | --- | --- | --- | --- | --- | --- |
| O=C(N[C@@H](Cc1ccccc1)C(=O)Nc1ccc(Cl)c(Cl)c1)c1cc(Cl)ccc1O [8q] | > 500 | > 500 | 0.9485 | 125 (≈ 58 µg/mL) | > 1000 | 74.2 | > 125 | > 125 | > 125 | > 125 | > 500 | > 500 | > 500 | > 500 | > 500 | > 500 | 125 (≈ 58 µg/mL) | > 1000 | 250 (≈ 116 µg/mL) | > 1000 | solubility in comparison with the initial esters [9]: lower solubility; precipitation in the testing medium [9]: precipitated from testing medium |
| C[C@H](NC(=O)c1cc(Cl)ccc1O)C(=O)Nc1cccc(Cl)c1 [8b] | > 250 | > 250 | 0.41 and 0.4166 | 500 (≈ 177 µg/mL) | > 500 | 41.7 | > 125 | > 125 | 125 (≈ 44.2 µg/mL) | 125 (≈ 44.2 µg/mL) | > 250 | > 250 | > 250 | > 250 | > 250 | > 250 | 250 (≈ 88.3 µg/mL) | > 500 | 500 (≈ 177 µg/mL) | > 500 | solubility in comparison with the initial esters [9]: lower solubility; precipitation in the testing medium [9]: precipitation in the testing medium |
| O=C(N[C@@H](Cc1ccccc1)C(=O)Nc1cccc(Cl)c1)c1cc(Cl)ccc1O [8f, N-{(1S)-1-benzyl-2-[(3-chlorophenyl)amino]-2-oxoethyl}-5-chloro-2-hydroxybenz-amide] | > 500 | > 500 | 0.70 and 0.7098 | 125 (≈ 53.7 µg/mL) | 250 (≈ 107 µg/mL) | 12.3 | 31.2 (≈ 13.4 µg/mL) | 125 (≈ 53.7 µg/mL) | 125 (≈ 53.7 µg/mL) | 125 (≈ 53.7 µg/mL) | > 500 | > 500 | > 500 | > 500 | > 500 | > 500 | 62.5 (≈ 26.8 µg/mL) | 125 (≈ 53.7 µg/mL) | 62.5 (≈ 26.8 µg/mL) | 125 (≈ 53.7 µg/mL) |  |
| C[C@H](NC(=O)c1ccc(Cl)cc1O)C(=O)Nc1ccc(Cl)cc1 [9a] | 500 (≈ 177 µg/mL) | 500 (≈ 177 µg/mL) | 0.4934 | 125 (≈ 44.2 µg/mL) | 125 (≈ 44.2 µg/mL) | 61.5 | > 250 | > 250 | > 250 | > 250 | 500 (≈ 177 µg/mL) | 500 (≈ 177 µg/mL) | 250 (≈ 88.3 µg/mL) | 500 (≈ 177 µg/mL) | 250 (≈ 88.3 µg/mL) | 250 (≈ 88.3 µg/mL) | 62.5 (≈ 22.1 µg/mL) | 62.5 (≈ 22.1 µg/mL) | 125 (≈ 44.2 µg/mL) | 125 (≈ 44.2 µg/mL) |  |
| O=C(N[C@H](Cc1ccccc1)C(=O)Nc1ccc(Cl)c(Cl)c1)c1cc(Cl)ccc1O [8r] | > 500 | > 500 | 0.9408 | 125 (≈ 58 µg/mL) | > 1000 |  | > 125 | > 125 | > 125 | > 125 | > 500 | > 500 | > 500 | > 500 | > 500 | > 500 | 125 (≈ 58 µg/mL) | > 1000 | 250 (≈ 116 µg/mL) | > 1000 | solubility in comparison with the initial esters [9]: lower solubility; precipitation in the testing medium [9]: precipitated from testing medium |
